What was measured:
CaSR [1] = target: T1, CaSR (Homo sapiens, UniProt P41180); experiment: Intracellular calcium mobilization assay in HEK-CaSR cells; type: cell-based; details: for Maximal response of Ca^2+ (intracellular Ca^2+): normalized to 7.49 mM Ca^2+ + vehicle in pcDNA3.1 cells
T1 sequence (P41180 20-536 limits assumed): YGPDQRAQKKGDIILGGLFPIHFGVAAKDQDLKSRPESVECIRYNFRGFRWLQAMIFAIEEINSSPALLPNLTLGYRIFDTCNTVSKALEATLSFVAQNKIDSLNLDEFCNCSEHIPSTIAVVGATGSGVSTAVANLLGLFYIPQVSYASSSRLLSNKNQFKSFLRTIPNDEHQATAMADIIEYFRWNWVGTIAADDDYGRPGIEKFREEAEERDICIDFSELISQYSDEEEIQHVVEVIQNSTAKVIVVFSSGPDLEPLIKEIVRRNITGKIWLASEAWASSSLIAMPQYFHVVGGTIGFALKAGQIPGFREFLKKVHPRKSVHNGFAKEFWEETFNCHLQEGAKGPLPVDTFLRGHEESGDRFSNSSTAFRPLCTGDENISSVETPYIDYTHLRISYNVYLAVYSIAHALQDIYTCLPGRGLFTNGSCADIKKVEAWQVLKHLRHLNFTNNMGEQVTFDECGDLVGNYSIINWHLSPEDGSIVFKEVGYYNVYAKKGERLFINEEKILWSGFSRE

CaSR [2] = target: T1, CaSR; experiment: cAMP accumulation assay in HEK-CaSR cells; type: cell-based; details: 3 mM Ca^2+; GPR64ΔNTF-transfected HEK-CaSR cells (Fig. 7C)
[3] = tested on: human parathyroid adenoma cells; experiment: PTH secretion from freshly isolated parathyroid adenoma cells; type: cell-based; details: increasing concentrations of Ca^2+, 30 min at 37°C; normalized to vehicle in 0.5 mM Ca^2+; representative of five independent experiments
CaSR [4] = target: T1, CaSR; details: patients; cited from earlier work
[5] = full-length GPR64-transfected HEK-CaSR cells, vehicle, mean ± SE

SMILES | Hill slope of Ca^2+ (intracellular Ca^2+) (CaSR [1]; [5]) | pEC50 of Ca^2+ (intracellular Ca^2+) (CaSR [1]; [5]) | Maximal response of Ca^2+ (intracellular Ca^2+) (CaSR [1]; [5]) | Maximal response of Ca^2+ (intracellular Ca^2+) (CaSR [1]; pcDNA3.1-transfected HEK-CaSR cells, vehicle, mean ± SE) | Intracellular Ca^2+ levels (in words) (CaSR [1]; vehicle-treated pcDNA3.1-transfected HEK-CaSR cells) | cAMP level with Ca^2+ (in words) (CaSR [2]) | PTH secretion (in words) [3] | Serum Ca^2+ normalization (in words) (CaSR [4])
[Ca+2].[Cl-].[Cl-] [Ca^2+, calcium chloride] | 2.915 ± 0.159 | 3.566 ± 0.010 | 101.70 ± 0.762% | 101.5 ± 1.177% | elevated the intracellular Ca^2+ levels in a concentration-dependent manner | reduced this effect, the cAMP level was still higher than that of cells transfected with empty vector in normocalcemic conditions | suppressed PTH secretion in a dose-dependent manner | –
C[C@@H](NCCCc1cccc(C(F)(F)F)c1)c1cccc2ccccc12 [cinacalcet] | – | – | – | – | – | – | – | normalize the serum Ca^2+ in a significant percentage of patients

Source: PMC7211037 (Journal of bone and mineral research : the official journal …, 2016)
